The values that follow come from article PMC6176321, “Efficient Synthesis of Glutamate Peptide-Estradiol Conjugate for Imaging Estrogen Receptor-Positive Diseases” (BioMed Research International, 2018).

Ends that are not written are not given here.

A short description of data set [1]: Micro-PET/CT imaging, tumor-to-muscle count density ratio. Conditions: mouse, in vivo, 0.14 mg per 100uCi (0.2 mL) per mouse, 0.14mg per 100μCi, iv, n=2 per compound. More on the design: species or system mice. Here is the method: For PET imaging studies, athymic nude mice (n=2 per compound) inoculated with MCF-7 cells (s.c. 10^6 cells/mouse) at the left hind legs. When tumor reached 0.7cm, the tumor-bearing mice were anesthetized with 2% isoflurane on prone position. ^68Ga chloride (5mCi) was obtained by eluting a ^68Ge/^68Ga generator (20mCi size from Eckert Ziegler, Germany) with HCL (0.1N, 1.5 mL). Labeling GAP (1 mg) and GAP-EDL (1mg) was achieved by dissolving both compounds in sodium acetate (0.4 mL, 0.1N, pH 5.4), followed by adding ^68Ga chloride (1mCi, 0.3mL). Both compounds were sat at 37°C for 20 min. For animal imaging studies, the concentrations were diluted to 1.5mL/mg by adding saline (0.9%). Each mouse was administered with ^68Ga-GAP and ^68Ga-GAP-EDL (0.14mg per 100μCi, 0.2 mL, iv). ^68Ga-GAP and ^68Ga-GAP-EDL imaging studies were performed with a Siemens Inveon micro-PET/CT scanner (Siemens Medical Systems, Hoffman Estates, IL). Three serial 30-minute trans-axial PET images were obtained. All corrections for attenuation, scatter, and dead time were applied to generate quantifiable images. Regions of interests were then drawn on the tumor tissue and muscle regions and time activity curves were generated, the counts per pixel were used to determine tumor tissue-to-muscle tissue count density ratios.

Data set [2] deals with MCF7 (ER+) breast cancer cells. The data set can be described thus: In vitro cellular uptake assay (sensitivity). Type of data set: cell-based. Particulars: 50,000 cells/well, 4 uCi/80uL/well, 4ug/well, average of three measurements. The procedure: (§1) In vitro cellular uptake studies of ^68Ga-GAP-EDL in breast tumor cells were performed. Breast cancer cell lines with high (MCF7; ER+) and low (SK-BR-3; ER-) estrogen receptor densities were used to determine the sensitivity and specificity for the cellular uptake assay. Briefly, for sensitivity assay, breast tumor cells (50,000 cells/well, 12 wells) were added with ^68GaCl3, ^68Ga-GAP, and ^68Ga-GAP-EDL (4 uCi/80uL/well, 4ug/well). The cells were incubated for 0.5-2 hrs. […] After incubation, the supernatant was collected. The cells were washed twice with ice cold PBS (1 ml) and trypsin EDTA (0.1 ml). After 2 min, the cells were collected. The wells were washed twice with cold PBS (0.5ml). The total volume of cell supernatant and the total volume containing cells were transferred to test tube to count the activity separately. Each piece of data represents an average of three measurements. Percentage of uptake (%)=cell activity/(cell supernatant+ cell activity)∗100% was calculated.

Data set [3] relates to SK-BR-3 (ER-) breast cancer cells. The data set can be described thus: In vitro cellular uptake assay (sensitivity). Type of data set: cell-based. Particulars: 50,000 cells/well, 4 uCi/80uL/well, 4ug/well, average of three measurements. The procedure: as §1

In the case of EEEEEE [^68Ga-GAP, metal not drawn], the tissue to tissue ratio at 0.5 h in data set [1] (30 min) was found to be 1.1 ± 0.02. In addition, the tissue to tissue ratio at 1 h in data set [1] (60 min) was determined as 1.2 ± 0.01. Moreover, the tissue to tissue ratio at 1.5 h in data set [1] (90 min) was found to be 1.2 ± 0.02. In addition, the Percentage of uptake in data set [2] (MCF-7, 30min incubation) was 2.20±0.73%; in data set [2] (MCF-7, 1h incubation) it was 3.20±1.17%; in data set [2] (MCF-7, 2h incubation) it was 2.43±0.71%; in data set [3] (SK-BR-3, 30min incubation), 1.84±0.27%; in data set [3] (SK-BR-3, 1h incubation), 3.11±1.29%; in data set [3] (SK-BR-3, 2h incubation) it was 2.45±0.21%.
For `[Cl][68Ga]([Cl])[Cl]` [^68GaCl3], the Percentage of uptake in data set [2] (MCF-7, 30min incubation) is recorded as 1.35±0.35%; in data set [2] (MCF-7, 1h incubation), 1.79±0.28%; in data set [2] (MCF-7, 2h incubation), 1.63±0.33%; in data set [3] (SK-BR-3, 30min incubation), 1.74±0.21%; in data set [3] (SK-BR-3, 1h incubation) it was 1.80±0.20%; in data set [3] (SK-BR-3, 2h incubation), 2.21±0.11%.
